Test results: patent US20130096166A1 (Clark Atlanta University, priority 2011, published 2013)

How the values were obtained:
ARCaP Snail cells [1] = experiment: Detection of reactive oxygen species (H2DCFDA oxidation); assay type: cell-based, human
Experimental: (§1) Cells were plated at a density of 1×10^4 cells well in 96-well black clear bottom plates and left to attach overnight. Baseline ROS levels were assessed in untreated ARCaP Neo, […], and C4-2 cells. Prior to treatment, […] C4-2 cells were starved in serum-free and phenol red free RPMI. […] Procedures were performed following manufacturer's protocol (Molecular Probes®, Invitrogen) with slight modifications. Briefly, cells were loaded with 10 μM (final working concentration) of H2DCFDA in pre-warmed Hanks Balance Salt solution (HBSS) for 45 minutes. This was replaced with experimental media with various treatments as well as untreated controls, for 3 days. H2DCFDA oxidation was measured on a spectrofluorometer (BIOTek Synergy HT, BIOTeK Instruments Inc., Vt.) with excitation […] and emission 528 nm at desired increments.

C4-2 cells [2] = experiment: as above; assay type: cell-based, human
Experimental: as §1

ARCaP Neo cells = experiment: Cell viability assay (CellTiter 96 AQueous One, MTS); assay type: cell-based, human
Experimental: (§2) PrEC, ARCaP Neo, ARCaP Snail, LNCaP, and C4-2 cells were plated at a density of 2,000 cells per well in 96-well plates and allowed to attach overnight.

ARCaP Snail cells [3] = experiment: as above; assay type: cell-based, human
Experimental: as §2

C4-2 cells [4] = experiment: as above; assay type: cell-based, human
Experimental: as §2

LNCaP cells = experiment: as above; assay type: cell-based, human
Experimental: as §2

[5] = test system: caspase-3/7 activity in ARCaP Snail cells; experiment: FACS analysis of caspase-3/7 activity (Dual Sensor Mitocasp assay); assay type: cell-based, human; conditions: 3 days
Experimental: Caspases are generally accepted as the executioners of apoptosis. […] Stained cells were evaluated in an Accuri® C6 Flow Cytometer (Accuri Cytometers Inc., Ann Arbor, Mich.) and analyzed using FlowJo software.

Snail = experiment: Western blot analysis of Snail protein expression; assay type: cell-based, human; conditions: 3 days
caspase-3 = experiment: Western blot analysis of total caspase-3 protein expression; assay type: cell-based, human
cleaved PARP = experiment: Western blot analysis of cleaved PARP protein expression; assay type: cell-based, human; conditions: for effect on camalexin-mediated PARP cleavage: H2O2 with camalexin
Jurkat T-leukemia cells = conditions: by increasing ROS and activation of caspases; cited from earlier work
Trypanosoma cruzi = conditions: cited from earlier work
[6] = Cell viability assay (CellTiter 96 AQueous One, MTS); assay type: cell-based, human; conditions: human, ARCaP Neo cells, 3 days, 50 μM H2O2, read-out: decrease in cell viability
Experimental: as §2

[7] = ARCaP Neo cells, 10, 25 and 50 μM
[8] = 10 mM NAC added to 25 or 50 μM camalexin

With c1ccc2c(-c3nccs3)c[nH]c2c1 [camalexin, 3-thiazol-2′yl-indole] the “ROS, as compared to untreated controls” value (ARCaP Snail cells [1]; 25 μM camalexin) was “approximately 210%”, the “ROS, as compared to untreated controls” value (ARCaP Snail cells [1]; 50 μM camalexin) was roughly 350±25% and the “ROS, of untreated controls” value (C4-2 cells [2]; 25 μM camalexin) was “approximately 130±5%”. The “ROS, of untreated controls” value (C4-2 cells [2]; 50 μM camalexin) was roughly 150±5%, the cell viability (ARCaP Neo cells; day 0) was “no change in viability” and the cell viability (ARCaP Neo cells; day 3, 10, 25 and 50 μM) was “remained unaffected”. For the same compound, the cell viability (ARCaP Snail cells [3]; day 0) was “no change in viability”, the “decrease in cell viability” value (ARCaP Snail cells [3]; day 3, 10 μM) was “approximately 25%” and the “decrease in cell viability” value (ARCaP Snail cells [3]; day 3, 25 μM) was roughly 35%. The “decrease in cell viability” value (ARCaP Snail cells [3]; day 3, 50 μM) was roughly 35%, the cell viability (C4-2 cells [4]; C4-2, day 0) was “viability was unaffected” and the “decrease in cell viability” value (C4-2 cells [4]; C4-2, day 3, 10 μM) was “approximately 40±5%”. The “decrease in cell viability” value (C4-2 cells [4]; C4-2, day 3, 25 μM) was “approximately 40±5%”, the “decrease in cell viability” value (C4-2 cells [4]; C4-2, day 3, 50 μM) was “approximately 40±5%” and the cell viability (LNCaP cells; day 0) was “viability was unaffected”. The “decrease in cell viability” value (LNCaP cells; day 3, 50 μM) was “approximately 40±2%”, the “fraction of cells with increased caspase-3/7 activity” value ([5]; 25 μM camalexin, untreated control 21.7%) was 34.2% and the Snail protein expression (Snail; [7]) was “no detectable levels of Snail protein expression”. For the same compound, the Snail protein expression (Snail; ARCaP Snail cells, 10, 25 and 50 μM) was “not affected by camalexin treatments”, the Snail protein expression (Snail; C4-2 cells, 10, 25 and 50 μM) was “did not affect Snail expression” and the Snail protein expression (Snail; LNCaP cells, 10 μM) was “moderate expressing band for Snail protein”. For the same compound, the “total caspase-3 protein levels” value (caspase-3; ARCaP Neo cells, 3 days) was “not in the less aggressive ARCaP Neo or LNCaP cells”, the “total caspase-3 protein levels” value (caspase-3; ARCaP Snail cells, 3 days (p<0.01 at 50 μM)) was “induced an increase in total caspase-3 protein levels” and the “total caspase-3 protein levels” value (caspase-3; C4-2 cells, 3 days) was “induced an increase in total caspase-3 protein levels”. The “total caspase-3 protein levels” value (caspase-3; LNCaP cells, 10 μM, 3 days) was “significant decrease in protein expression”, the “total caspase-3 protein levels” value (caspase-3; LNCaP cells, 3 days) was “not in the less aggressive ARCaP Neo or LNCaP cells” and the “cleaved PARP protein expression” value (cleaved PARP; [7]) was “very low levels of cleaved PARP protein expression”. For the same compound, the “cleaved PARP protein expression” value (cleaved PARP; ARCaP Snail cells, 10, 25 and 50 μM vs untreated control) was “marked increase in levels of cleaved PARP protein expression”, the PARP protein cleavage (cleaved PARP; C4-2 cells, all 3 camalexin treatments, vs LNCaP cells) was “marked increase in PARP protein cleavage” and the apoptosis (Jurkat T-leukemia cells) was “induced apoptosis”. For the same compound, the cytostatic/cytotoxic effects (Trypanosoma cruzi) was “cytostatic/cytotoxic effects”.
In the case of OO [H2O2, Hydrogen peroxide, reference compound], the ROS in cells (C4-2 cells [2]; 100 μM H2O2 positive control) is reported as “significantly increased ROS”, the cytotoxicity at 3 days, 50 μM [6] is reported as roughly 50% and the “effect on camalexin-mediated PARP cleavage” value (cleaved PARP; ARCaP Neo cells) is reported as “potentiated camalexin-mediated PARP cleavage”. For the same compound, the “effect on camalexin-mediated PARP cleavage” value (cleaved PARP; LNCaP cells) was “potentiated camalexin-mediated PARP cleavage”.
For CC(=O)N[C@@H](CS)C(=O)O [NAC, N-acetyl cysteine, reference compound], the “effect on camalexin-mediated ROS” value (ARCaP Snail cells [1]; [8]) was “abrogated by NAC”, the “effect on camalexin-mediated ROS” value (C4-2 cells [2]; [8]) was “significantly decreased camalexin-mediated ROS” and the “increased viability vs. 25 μM camalexin-only treatment” value (ARCaP Snail cells [3]; 3 days, 25 μM camalexin with 10 mM NAC, not statistically significant) was “approximately 15%”. For the same compound, the “effect on camalexin-induced increase in caspase-3/7 activity” value ([5]; 25 μM camalexin plus 10 mM NAC) was “abrogated the percent increase in caspase-3/7 activity” and the “effect on camalexin-increased cleaved PARP protein expression” value (cleaved PARP; ARCaP Snail cells, co-treatment with NAC) was “could be inhibited by co-treatment with NAC”.
